Test results: patent US8962691B2, “Retinoid replacements and opsin agonists and methods for the use thereof” (University of Washington, priority 2003, dated 2015)

How the values were obtained:
Gt = assay: Kinetic light scattering (Gt activation); format: biochemical
Protocol: Light-scattering changes were measured as previously described (Heck et al., Methods Enzymol. 315:32947 (2000)). Measurements were performed in 10-mm path cuvettes with 300-μl volumes in isotonic buffer (20 mM BTP, 130 mM NaCl, and 1 mM MgCl2, pH 6.4, as indicated in the legend to FIG. 6) at 22° C. with a 5-ms dwell time of the A/D converter (Nicolet 400, Madison, Wis.). Samples contained membrane suspension (3 μM rhodopsin) reconstituted with purified Gt (0.8 μM) and 1 mM GTP. Reactions were triggered by flash photolysis of rhodopsin with a green (500±20 nm) flash attenuated by appropriate neutral density filters. The flash intensity was quantified photometrically by the amount of rhodopsin bleached and expressed in terms of the mole fraction of photoexcited rhodopsin (Rh*/Rh).

Rpe65−/− mice [1] = assay: In vivo regeneration of rhodopsin with 6- and 7-ring isomers; set-up: species or system mouse
From the text: All animal studies employed procedures approved by the University of Washington Animal Care Committee and conformed to recommendations of the American Veterinary Medical Association Panel on Euthanasia. All animals were maintained in complete darkness, and all manipulations were done under dim red light employing a Kodak No. 1 Safelight filter (transmittance >560 nm). Typically, 2-3-month-old mice were used in all studies. RPE65-deficient mice were obtained from M. Redmond (National Eye Institute, National Institutes of Health. Bethesda, Md.) and genotyped as described previously (Redmond et al., Nat. Genet. 20:344-51 (1998; Redmond et al. Methods Enzymol. 316:705-24 (2000)).
All procedures were performed under dim red light as described previously (Van Hooser et al., Proc. Natl. Acad. Sci. USA 97:862328 (2000); Jang. et al., J. Biol. Chem. 276:3245665 (2001); Palczewski et al., Biochemistry 38:12012-19 (1999)).

Rpe65−/− mice [2] = system: Rpe65−/− mice
Protocol: Mice were anesthetized by intraperitoneal injection with 15 μl/g body weight of 6 mg/ml ketamine and 0.44 mg/ml xylazine diluted with 10 mM phosphate buffer, pH 7.2, containing 100 mM NaCl. The pupils were dilated with 1% tropicamide. A contact lens electrode was placed on the eye with a drop of methylcellulose, and a ground electrode (a reference electrode) was placed in the ear. ERGs were recorded with the universal testing and electrophysiologic system 3000 (UTAS E-3000) (LKC Technologies, Inc.). The mice were placed in a Ganzfield chamber, and responses to flash stimuli were obtained from both eyes simultaneously. […] Two to four recordings were made with >10-second intervals. Typically, 4-8 animals were used for recording of each point in all conditions. All ERG measurements were done within 10-40 minutes after anesthesia.

opsin = molecular target: T1, opsin (Bos taurus, UniProt P02699); assay: Photoisomerization (bleaching) of 11-cis-7-ring-retinals in solution and bound to opsin
T1 construct: Preparation of rod outer segment, opsin, rhodopsin regeneration with retinals; from tissue; host or cells: rod outer segments
T1 sequence (P02699 whole entry): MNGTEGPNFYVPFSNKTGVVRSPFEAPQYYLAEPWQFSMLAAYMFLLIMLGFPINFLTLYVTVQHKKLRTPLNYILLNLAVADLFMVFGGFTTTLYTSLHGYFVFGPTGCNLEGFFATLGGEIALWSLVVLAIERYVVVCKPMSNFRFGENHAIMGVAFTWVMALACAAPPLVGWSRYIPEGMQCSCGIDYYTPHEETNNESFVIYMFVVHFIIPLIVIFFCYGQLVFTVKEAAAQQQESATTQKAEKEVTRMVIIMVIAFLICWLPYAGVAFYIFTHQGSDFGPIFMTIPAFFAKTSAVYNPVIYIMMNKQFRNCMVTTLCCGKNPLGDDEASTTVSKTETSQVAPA
Protocol: Preparation of rod outer segment, opsin, rhodopsin regeneration with retinals, and purification of rhodopsin on a concanavalin A-Sepharose 4B column were conducted as described previously (Jang et al., J. Biol. Chem. 276:26148-53 (2001)).

rhodopsin = molecular target: T2, rhodopsin (Bos taurus, UniProt P02699); assay: FTIR spectroscopy of regenerated rhodopsin; format: biochemical; conditions: for FTIR difference spectra of regenerated rhodopsin upon photoactivation: 7-ring analogs
T2 construct: Opsin membranes (24 μM) (Sachs et al., J. Biol. Chem. 275:6189-94 (2000)); from tissue; rod outer segment membranes by inference
T2 sequence (P02699 whole entry): as above
Protocol: Opsin membranes (24 μM) (Sachs et al., J. Biol. Chem. 275:6189-94 (2000)) were incubated overnight with 240 μM 11-cis-retinal or with the mixture of either 11-cis-6-ring- or 11-cis-7-ring-retinal isomers in the BTP buffer (20 mM BTP, pH 7.5, containing 1 mM MgCl2 and 130 mM NaCl). Suspensions of membranes were centrifuged for 25 minutes at 100,000×g and resuspended in the BTP buffer to yield 2.2 mM rhodopsin (from absorption at 500 nm). […] For H2O/D2O exchange, the pellet was resuspended three times in deuterated buffer. The buffer solution was removed, and the pellet transferred to a 30-mm-diameter temperature-controlled transmission cell with two BaF2 windows and a 3 μm polytetrafluoroethylen gasket. The spectra were recorded using a Bruker ifs 66-V spectrometer (Bard et al., FEBS Lett. 473:259-64 (2000)). For all samples, Meta II minus rhodopsin difference spectra were produced.

rhodopsin kinase = assay: Phosphorylation of regenerated rhodopsin by rhodopsin kinase; format: biochemical; conditions: in vitro
Protocol: Regenerated rhodopsin (2 mg/ml) was mixed in 100 μl of 100 mM sodium phosphate buffer, pH 7.2, containing 5 mM MgCl2, 0.5 mM [^32P]ATP (approximately 35,000 to approximately 50,000 cpm/nmol) and purified rhodopsin kinase (approximately 5 μg of protein), and the assay was carried out as described previously (Palczewski et al., J. Biol. Chem. 266:1294955 (1991)). Studies were performed in triplicate.

For 11-cis-6-ring-retinal, the “sensitivity of activity to hydroxylamine” value (Gt) was “sensitive to hydroxylamine”, the “intensity of activating light flash needed for Gt activation rates comparable to wild-type rhodopsin” value (Gt; membranes with regenerated rhodopsin) was 1350 fold and the “pH dependence of Gt activation” value (Gt; pH 6.4 vs 7.4) was “enhanced at acidic pH”. For the same substance, the “isomeric products in visual pigment after injection of isomer mixture” value (Rpe65−/− mice [1]) was “three isomers”, the “activity of rhodopsin regenerated in vivo” value (Rpe65−/− mice [2]; Rpe65−/− mice) was “active at higher bleaches” and the “ERG activity (a- and b-wave) compared with Me2SO” value (Rpe65−/− mice [2]; mouse, in vivo) was “clearly elevated”.
11,13-di-cis-7-ring retinal [isomer 2] was tested, and the “isomerization when bound to opsin” value (opsin) was “converts readily to isomer 3 even in the dark” and the “FTIR difference spectra of regenerated rhodopsin upon photoactivation” value (shortened to “FTIR difference spectra”) (rhodopsin) was “inactive”.
With “9,11,13-tri-cis-7-ring retinal [isomer 1]” the “abundance in isomer mixture after bleaching” value (opsin; bleaching 7-ring-retinoids in solution) was “least abundant isomer” and the “FTIR difference spectra” value (rhodopsin) was “only minor changes in the difference spectra”.
With 9,11-di-cis-7-ring retinal [isomer 4] the “FTIR difference spectra” value (rhodopsin) was “only minor changes in the difference spectra”.
In the case of “11-cis-7-ring-rhodopsin: rhodopsin regenerated with 11-cis-7-ring-retinal”, the “activity in phosphorylation assay with purified rhodopsin kinase” value (rhodopsin kinase) is reported as “inactive”.
For 11-cis-7-ring retinal [isomer 3], the “isomerization when bound to opsin” value (opsin) was “most stable to isomerization”, the “FTIR difference spectra” value (rhodopsin) was “inactive” and the “activity relative to wild-type” value (Gt; regenerated rhodopsin) was 0.10%. The “regeneration of opsin in vivo” value (Rpe65−/− mice [1]) was “readily and preferentially regenerated”.
For “Meta II: catalytically active rhodopsin intermediate containing all-trans-retinal bound to Lys296 of opsin [reference compound]”, the “pKa of the light-induced active species” value (rhodopsin) was 6.7.
For “11-cis-6-ring-rhodopsin: rhodopsin regenerated with 11-cis-6-ring-retinal (2-carbon bridge)”, the “pKa of the light-induced active species” value (rhodopsin) was 5.4, the “FTIR: photoproduct after bleaching” value (rhodopsin; pH 4.5) was “Meta II-like product that is able to bind Gt-(340-350) derived peptide” and the “FTIR: activity after bleaching” value (rhodopsin; pH 7.5) was “only residual activity”. For the same substance, the “activity relative to the 7-locked pigment” value (Gt) was “markedly higher”.
